≈ marks a conversion by molar mass, not a printed value. Blank lines part the entries; values can stand above or below the compound they belong to.
What was measured:
Alpha amylase = molecular target: T1, Alpha amylase (Homo sapiens, UniProt P0DUB6); assay: Inhibition of alpha amylase (unknown origin) using starch as substrate preincubated for 30 mins followed by substrate addition and measured after 30 mins by absorbance based analysis
T1 sequence (P0DUB6 whole entry): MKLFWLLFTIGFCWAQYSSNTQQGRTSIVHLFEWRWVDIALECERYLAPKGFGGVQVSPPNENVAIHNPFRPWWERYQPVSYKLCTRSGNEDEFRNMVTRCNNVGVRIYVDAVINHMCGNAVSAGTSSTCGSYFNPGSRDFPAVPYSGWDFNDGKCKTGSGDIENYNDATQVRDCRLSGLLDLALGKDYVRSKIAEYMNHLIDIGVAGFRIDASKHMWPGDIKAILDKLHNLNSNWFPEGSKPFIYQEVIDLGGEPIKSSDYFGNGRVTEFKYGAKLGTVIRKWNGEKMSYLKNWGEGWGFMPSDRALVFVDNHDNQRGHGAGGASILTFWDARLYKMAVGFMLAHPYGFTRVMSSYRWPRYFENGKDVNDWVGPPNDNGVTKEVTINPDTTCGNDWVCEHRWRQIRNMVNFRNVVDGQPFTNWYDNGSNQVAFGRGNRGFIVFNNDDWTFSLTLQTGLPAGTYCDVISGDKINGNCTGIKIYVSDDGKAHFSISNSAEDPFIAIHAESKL

[1] = Antioxidant activity assessed as DPPH radical scavenging activity incubated for 30 mins under dark condition; type: functional

Structure (SMILES): COc1ccc(-c2nc3c(n2Cc2cn(-c4ccccc4)nn2)C(=O)c2ccccc2C3=O)c(OC)c1
IC50 (Alpha amylase): 25.44 µg/mL (≈ 51.8 µM) | IC50 [1]: 11.09 µg/mL (≈ 22.6 µM)

Structure (SMILES): CCCCn1cc(Cn2c(-c3cccc(OC)c3)nc3c2C(=O)c2ccccc2C3=O)nn1
IC50 (Alpha amylase): 21.11 µg/mL (≈ 47.8 µM) | IC50 [1]: 9.82 µg/mL (≈ 22.2 µM)

Structure (SMILES): COc1ccc(-n2cc(Cn3c(-c4ccc(OC)cc4OC)nc4c3C(=O)c3ccccc3C4=O)nn2)cc1
IC50 (Alpha amylase): 19.3 µg/mL (≈ 37 µM) | IC50 [1]: 10.65 µg/mL (≈ 20.4 µM)

Structure (SMILES): CCCCn1cc(Cn2c(-c3ccc(OC)c(OC)c3OC)nc3c2C(=O)c2ccccc2C3=O)nn1
IC50 (Alpha amylase): 23.49 µg/mL (≈ 46.8 µM) | IC50 [1]: 9.23 µg/mL (≈ 18.4 µM)

Structure (SMILES): COc1ccc(-c2nc3c(n2Cc2cn(-c4ccccc4)nn2)C(=O)c2ccccc2C3=O)c(OC)c1OC
IC50 (Alpha amylase): 18.51 µg/mL (≈ 35.5 µM) | IC50 [1]: 9.63 µg/mL (≈ 18.5 µM)

Structure (SMILES): COc1ccc(-c2nc3c(n2Cc2cn(-c4ccc([N+](=O)[O-])cc4)nn2)C(=O)c2ccccc2C3=O)cc1
IC50 (Alpha amylase): 18.62 µg/mL (≈ 36.8 µM) | IC50 [1]: 10.88 µg/mL (≈ 21.5 µM)

Structure (SMILES): COc1cccc(-c2nc3c(n2Cc2cn(-c4ccc(C)cc4)nn2)C(=O)c2ccccc2C3=O)c1
IC50 (Alpha amylase): 18.42 µg/mL (≈ 38.7 µM) | IC50 [1]: 9.5 µg/mL (≈ 20 µM)

Structure (SMILES): COc1ccc(-n2cc(Cn3c(-c4cccc(OC)c4)nc4c3C(=O)c3ccccc3C4=O)nn2)cc1
IC50 (Alpha amylase): 22.73 µg/mL (≈ 46.2 µM) | IC50 [1]: 9.8 µg/mL (≈ 19.9 µM)

Structure (SMILES): O=C1c2ccccc2C(=O)c2c1nc(-c1ccc(F)cc1)n2Cc1cn(-c2ccccc2)nn1
IC50 (Alpha amylase): 26.01 µg/mL (≈ 57.9 µM) | IC50 [1]: 10.32 µg/mL (≈ 23 µM)

Structure (SMILES): O=C1c2ccccc2C(=O)c2c1nc(-c1ccc(F)cc1)n2Cc1cn(-c2ccc(F)cc2)nn1
IC50 (Alpha amylase): 22.04 µg/mL (≈ 47.2 µM) | IC50 [1]: 9.57 µg/mL (≈ 20.5 µM)

Structure (SMILES): COc1ccc(-n2cc(Cn3c(-c4ccc(OC)c(OC)c4OC)nc4c3C(=O)c3ccccc3C4=O)nn2)cc1
IC50 (Alpha amylase): 17.83 µg/mL (≈ 32.3 µM) | IC50 [1]: 8.99 µg/mL (≈ 16.3 µM)

Structure (SMILES): COc1ccc(-c2nc3c(n2Cc2cn(-c4ccccc4)nn2)C(=O)c2ccccc2C3=O)cc1
IC50 (Alpha amylase): 20.73 µg/mL (≈ 44.9 µM) | IC50 [1]: 10.15 µg/mL (≈ 22 µM)

Structure (SMILES): COc1ccc(-c2nc3c(n2Cc2cn(-c4ccc(F)cc4)nn2)C(=O)c2ccccc2C3=O)c(OC)c1
IC50 (Alpha amylase): 23.81 µg/mL (≈ 46.7 µM) | IC50 [1]: 9.92 µg/mL (≈ 19.5 µM)

Structure (SMILES): COc1cccc(-c2nc3c(n2Cc2cn(-c4ccccc4)nn2)C(=O)c2ccccc2C3=O)c1
IC50 (Alpha amylase): 25.07 µg/mL (≈ 54.3 µM) | IC50 [1]: 10.05 µg/mL (≈ 21.8 µM)

Structure (SMILES): COc1ccc(-c2nc3c(n2Cc2cn(-c4ccc([N+](=O)[O-])cc4)nn2)C(=O)c2ccccc2C3=O)c(OC)c1OC
IC50 (Alpha amylase): 18.11 µg/mL (≈ 32 µM) | IC50 [1]: 10.1 µg/mL (≈ 17.8 µM)

Structure (SMILES): Cc1ccc(-n2cc(Cn3c(-c4ccc(F)cc4)nc4c3C(=O)c3ccccc3C4=O)nn2)cc1
IC50 (Alpha amylase): 24.08 µg/mL (≈ 52 µM) | IC50 [1]: 9.61 µg/mL (≈ 20.7 µM)

Structure (SMILES): COc1cccc(-c2nc3c(n2Cc2cn(-c4ccc(F)cc4)nn2)C(=O)c2ccccc2C3=O)c1
IC50 (Alpha amylase): 18.41 µg/mL (≈ 38.4 µM) | IC50 [1]: 9.3 µg/mL (≈ 19.4 µM)

Structure (SMILES): COc1ccc(-n2cc(Cn3c(-c4ccc(F)cc4)nc4c3C(=O)c3ccccc3C4=O)nn2)cc1
IC50 (Alpha amylase): 19.87 µg/mL (≈ 41.4 µM) | IC50 [1]: 10.84 µg/mL (≈ 22.6 µM)

Structure (SMILES): COc1ccc(-c2nc3c(n2Cc2cn(-c4ccc(C)cc4)nn2)C(=O)c2ccccc2C3=O)c(OC)c1OC
IC50 (Alpha amylase): 22.87 µg/mL (≈ 42.7 µM) | IC50 [1]: 10.19 µg/mL (≈ 19 µM)

Structure (SMILES): COc1ccc(-c2nc3c(n2Cc2cn(-c4ccc(OC)cc4)nn2)C(=O)c2ccccc2C3=O)cc1
IC50 (Alpha amylase): 25.49 µg/mL (≈ 51.9 µM) | IC50 [1]: 9.55 µg/mL (≈ 19.4 µM)

Structure (SMILES): COc1ccc(-c2nc3c(n2Cc2cn(-c4ccc(C)cc4)nn2)C(=O)c2ccccc2C3=O)c(OC)c1
IC50 (Alpha amylase): 21.71 µg/mL (≈ 42.9 µM) | IC50 [1]: 11.19 µg/mL (≈ 22.1 µM)

Second part, the compound after the results:

IC50 (Alpha amylase): 21.18 µg/mL (≈ 41.8 µM) | IC50 [1]: 9.2 µg/mL (≈ 18.2 µM)
Structure (SMILES): COc1cccc(-c2nc3c(n2Cc2cn(-c4ccc([N+](=O)[O-])cc4)nn2)C(=O)c2ccccc2C3=O)c1

IC50 (Alpha amylase): 19.72 µg/mL (≈ 45.9 µM) | IC50 [1]: 9.41 µg/mL (≈ 21.9 µM)
Structure (SMILES): CCCCn1cc(Cn2c(-c3ccc(F)cc3)nc3c2C(=O)c2ccccc2C3=O)nn1

IC50 (Alpha amylase): 24.19 µg/mL (≈ 50.5 µM) | IC50 [1]: 10.58 µg/mL (≈ 22.1 µM)
Structure (SMILES): COc1ccc(-c2nc3c(n2Cc2cn(-c4ccc(F)cc4)nn2)C(=O)c2ccccc2C3=O)cc1

IC50 [1]: 9.41 µg/mL (≈ 42.7 µM)
Structure (SMILES): Cc1cc(C(C)(C)C)c(O)c(C(C)(C)C)c1 [BUTYLATED HYDROXYTOLUENE]

IC50 (Alpha amylase): 24.58 µg/mL (≈ 51.7 µM) | IC50 [1]: 10.14 µg/mL (≈ 21.3 µM)
Structure (SMILES): COc1ccc(-c2nc3c(n2Cc2cn(-c4ccc(C)cc4)nn2)C(=O)c2ccccc2C3=O)cc1

IC50 (Alpha amylase): 23.94 µg/mL (≈ 44.4 µM) | IC50 [1]: 10.41 µg/mL (≈ 19.3 µM)
Structure (SMILES): COc1ccc(-c2nc3c(n2Cc2cn(-c4ccc(F)cc4)nn2)C(=O)c2ccccc2C3=O)c(OC)c1OC

IC50 (Alpha amylase): 20.64 µg/mL (≈ 43.8 µM) | IC50 [1]: 10.26 µg/mL (≈ 21.8 µM)
Structure (SMILES): CCCCn1cc(Cn2c(-c3ccc(OC)cc3OC)nc3c2C(=O)c2ccccc2C3=O)nn1

IC50 (Alpha amylase): 18.63 µg/mL (≈ 37.7 µM) | IC50 [1]: 9.69 µg/mL (≈ 19.6 µM)
Structure (SMILES): O=C1c2ccccc2C(=O)c2c1nc(-c1ccc(F)cc1)n2Cc1cn(-c2ccc([N+](=O)[O-])cc2)nn1

IC50 (Alpha amylase): 24.25 µg/mL (≈ 54.9 µM) | IC50 [1]: 10.76 µg/mL (≈ 24.4 µM)
Structure (SMILES): CCCCn1cc(Cn2c(-c3ccc(OC)cc3)nc3c2C(=O)c2ccccc2C3=O)nn1

IC50 (Alpha amylase): 20.24 µg/mL (≈ 37.7 µM) | IC50 [1]: 10.07 µg/mL (≈ 18.8 µM)
Structure (SMILES): COc1ccc(-c2nc3c(n2Cc2cn(-c4ccc([N+](=O)[O-])cc4)nn2)C(=O)c2ccccc2C3=O)c(OC)c1
